Reference: patent publication US9693954B2, “Co-delivery of stimulatory and inhibitory factors to create temporally stable and spatially restricted zones” (President and Fellows of Harvard College, priority 2010, dated 2017)

Columns and labels:
[1] = system: dermal human vascular endothelial cells (HMVECs); assay: in vitro sprouting assay (cell-seeded dextran beads in fibrin gel); format: cell-based; conditions: HMVEC-coated beads in fibrin gel, 4 days, 10 ng/mL HGF in all media
Protocol: Briefly, dermal human vascular endothelial cells (HMVECs) were purchased from Lonza (CC-2543) and cultured to confluence at 37° C. and 5% CO2 in microvascular endothelial cell growth medium-2 (EGM-2MV) (Lonza) containing all supplements. Angiogenic activity of endothelial cells was assessed using a modification of a widely used in vitro sprouting assay (Nehls, V., and Drenckhahn, D. 1995 Microvasc Res 50, 311-322). Briefly, dextran beads microcarriers (Cytodex 3) with a dry weight of 50 mg were swollen in PBS and autoclaved. The microcarriers were washed in EGM-2MV medium and seeded with 3×10^6 HMVECs in a spinner flask. The microcarriers were stirred for 2 minutes out of 30 minutes for […] at 37° C. incubation. After 4 hours, the beads and cells mixture were continuously stirred and incubated for an additional 20 hours. The cell-coated beads were then seeded in fibrin gel in a 24-well-plate. The composition of the fibrin gel in each well was 0.682 mg fibrinogen (Sigma, T3879), 11.4 μg aprotinin (Sigma, A4529), 0.455 U thrombin (Sigma, T6884) in 393 μL of phosphate buffered saline (PBS) and 57 μL of EGM2-MV. Gels were incubated at 37° C. for 30 minutes and media of experimental conditions were placed on top of the gel. […] Media were changed every 24 hours and the cells were allowed to sprout from beads into surrounding gel over 4 days. […]

angiogenesis = conditions: from previous studies; cited from earlier work
[2] = system: phospho-Smad2 in D1 (MSCs); assay: immunoblot / immunostaining for phospho-Smad2 (2/3) in D1 MSCs; format: cell-based
Protocol: (§1) Experiments were carried out with the following morphogens: TGF-β1 to drive dentin differentiation and BMP4 to drive bone differentiation. The scaffold devices were fabricated, loaded with morphogens (in this case, differentiation factors), and then seeded with stem cells, e.g., mesendymal stem cells, embryonic stem cells or induced pluripotent stem cells (iPS)). The loaded, seeded devices were cultured for 21 days with no additional factors present in the media. All factors came from within the scaffold from the point of seeding. Immunoblots were carried out to assess activation of the downstream Smad signaling pathways following treatment of D1s with these morphogens.

[3] = system: TGF-β reporter line (MLEC p3TP Luc); assay: TGF-β reporter cell line luciferase activity; format: cell-based
Protocol: (§2) FIG. 22E is a schematic showing an experimental scheme to show the precise kinetics of growth factor exposure on luciferase activity in the reporter lines. Following seeding and serum starvation (reduces background), a specific inhibitor is added to create a uniform inhibitory field. Subsequently, for given amounts of time, the inhibitor is washed off, the growth factor (either TGF-β1 or BMP4) is added for specified time, and washed off followed by re-addition of the inhibitor. At 24 hours, cells are lysed and assayed for luciferase activity.
(§3) The reporter cell lines were seeded in these 5 layered systems and imaged for luciferase activity after 24 hours to confirm development of spatially distinct morphogens fields.

[4] = system: BMP4 reporter (C2C12 BRE Luc); assay: BMP4 reporter cell line luciferase activity; format: cell-based
Protocol: as §2, §3

[5] = system: phospho-Smad1/5/8 in D1 (MSCs); assay: immunoblot for phospho-Smad1/5/8 in D1 MSCs; format: cell-based
Protocol: as §1

[6] = inhibitor wash-off / re-addition scheme, lysis at 24 hours

Molecule: VEGF
- angiogenic sprouting (number of sprouts per bead) [1]: induced angiogenic sprouting
- minimum effective VEGF concentration in vivo to induce angiogenesis (angiogenesis): ~5 ng/mL

Molecule: TGF-β1: transforming growth factor-β1, morphogen used to drive dentin differentiation
- phospho-Smad2 activation (immunoblot) [2]: dose-dependent activation
- phospho-Smad2/3 immunostaining ([2]; following stimulation): nuclear localization of activated Smads
- luciferase activity with varying TGF-β1 concentration [3]: linear dose dependence
- exposure time sufficient for maximal induction of luciferase activity [3, 6]: 5 to 15 min

B1: BMP4: bone morphogenetic protein 4, morphogen used to drive bone differentiation (protein, UniProt P12644 293-408, looked up)
Bone morphogenetic protein 4: SPKHHSQRARKKNKNCRRHSLYVDFSDVGWNDWIVAPPGYQAFYCHGDCPFPLADHLNSTNHAIVQTLVNSVNSSIPKACCVPTELSAISMLYLDEYDKVVLKNYQEMVVEGCGCR
- luciferase activity with varying BMP4 concentration [4]: linear dose dependence
- exposure time sufficient for maximal induction of luciferase activity [4, 6]: 5 to 15 min
- phospho-Smad1/5/8 activation (immunoblot) [5]: dose-dependent activation
